Values quoted from earlier work in patent publication US20150336981A1, “MODIFIED POLYPHENOLS AND MODIFIED POLYPHENOL COMPOSITIONS” (CELLAROUGE PTY LTD, priority 2012, published 2015).

Test system: high-carbohydrate, high fat diet-fed rats
Settings: HEA: high-carbohydrate, high fat diet + ellagic acid 0.8 g/kg food

In the case of `O=c1oc2c(O)c(O)cc3c(=O)oc4c(O)c(O)cc1c4c23` [ellagic acid], the AUC is listed as 696 ± 11 mmol·min/L, the Abdominal circumference is listed as 21.3 ± 0.3 cm and the Abdominal fat pads is listed as 520 ± 29 mg/mm tibial length. The BMI was 0.72 ± 0.02 g/cm^2, the Basal blood glucose was 3.9 ± 0.2 mmol/L and the Feed efficiency was 0.31 ± 0.02 g/kJ. For the same molecule, the Final body weight was 473 ± 2 g, the Food intake was 21.0 ± 0.4 g and the “Plasma C-reactive protein” value was 2.40 ± 0.07 µmol/L. For the same molecule, the “Plasma non-esterified fatty acids” value was 1.7 ± 0.2 mmol/L, the Plasma total cholesterol was 1.5 ± 0.1 mmol/L and the Plasma triglycerides was 0.5 ± 0.1 mmol/L. For the same molecule, the Plasma urea was 6.2 ± 0.4 mmol/L, the Plasma uric acid was 44.3 ± 3.8 µmol/L and the Water intake was 19.0 ± 0.4 mL.
